Test results as given in patent publication US7282354B2, “Method for producing fermented milk product” (Calpis Co., Ltd., priority 2000, dated 2007).

Key:
[1] = tested on: spontaneously hypertensive rat (SHR); details: J. Dairy Sci. 78:1253-1257(1995); cited from earlier work
ACE = ACE (Homo sapiens, UniProt P12821); experiment: ACE inhibitory activity of IPP per unit weight relative to VPP; assay type: biochemical
ACE, sequence (P12821 30-1306, species assumed): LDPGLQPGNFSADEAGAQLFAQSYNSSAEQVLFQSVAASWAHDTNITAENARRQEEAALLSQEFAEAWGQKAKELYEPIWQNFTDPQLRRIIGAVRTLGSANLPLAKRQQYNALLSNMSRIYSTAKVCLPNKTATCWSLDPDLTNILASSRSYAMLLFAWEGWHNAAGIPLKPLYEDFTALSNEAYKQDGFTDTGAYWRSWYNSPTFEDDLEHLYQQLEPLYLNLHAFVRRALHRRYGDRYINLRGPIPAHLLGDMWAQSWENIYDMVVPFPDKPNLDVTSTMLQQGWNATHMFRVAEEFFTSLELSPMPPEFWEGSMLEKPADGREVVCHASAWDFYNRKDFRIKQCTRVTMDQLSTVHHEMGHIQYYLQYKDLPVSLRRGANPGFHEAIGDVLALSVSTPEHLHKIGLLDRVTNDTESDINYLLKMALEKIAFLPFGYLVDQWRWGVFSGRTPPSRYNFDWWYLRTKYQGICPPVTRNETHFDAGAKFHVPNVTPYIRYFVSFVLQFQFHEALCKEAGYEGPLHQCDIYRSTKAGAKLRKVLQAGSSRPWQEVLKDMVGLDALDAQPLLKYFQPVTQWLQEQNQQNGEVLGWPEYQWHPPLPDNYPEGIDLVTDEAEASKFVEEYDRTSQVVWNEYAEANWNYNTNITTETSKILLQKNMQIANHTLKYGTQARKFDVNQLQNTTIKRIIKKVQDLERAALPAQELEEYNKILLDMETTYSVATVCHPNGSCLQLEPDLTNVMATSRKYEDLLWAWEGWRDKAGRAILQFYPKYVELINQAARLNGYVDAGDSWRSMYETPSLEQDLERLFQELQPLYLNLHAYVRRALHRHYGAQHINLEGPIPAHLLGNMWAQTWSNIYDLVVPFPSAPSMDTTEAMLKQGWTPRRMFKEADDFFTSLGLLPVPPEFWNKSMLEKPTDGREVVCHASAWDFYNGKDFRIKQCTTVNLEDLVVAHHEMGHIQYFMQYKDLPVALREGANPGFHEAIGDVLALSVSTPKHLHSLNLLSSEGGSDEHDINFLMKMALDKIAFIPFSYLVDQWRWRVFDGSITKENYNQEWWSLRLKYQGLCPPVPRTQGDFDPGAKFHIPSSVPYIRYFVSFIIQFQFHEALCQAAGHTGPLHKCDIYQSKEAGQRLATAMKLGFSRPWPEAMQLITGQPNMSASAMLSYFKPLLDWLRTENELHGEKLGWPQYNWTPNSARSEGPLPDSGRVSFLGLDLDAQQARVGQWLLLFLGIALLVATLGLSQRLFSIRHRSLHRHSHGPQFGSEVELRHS

| ACE inhibitory activity per unit weight relative to VPP (ACE) | Substance | Hypotensive effect [1] |
| --- | --- | --- |
| – | Val-Pro-Pro [VPP] | strong hypotensive effect |
| 1.7 times that of VPP | Ile-Pro-Pro [IPP] | strong hypotensive effect |
